Data on three compounds can be found in PubChem BioAssay (NCI).

Among the test systems are ACHN renal; CAKI-1 renal; COLO 205 colon; MCF7 breast; NCI-H23 lung; OVCAR-4 ovarian; OVCAR-8 ovarian; PC-3 prostate; SK-MEL-28 melanoma; TK-10 renal.
Experiment in all cases: NCI tumour cell line growth inhibition, 48 h

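Protocol summary: plate cells (96-well), add compound at 5 concentrations, incubate 48 h, interpolate endpoints linearly. At the GI50, growth is halved. The concentration for full growth arrest is given as TGI.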

For the compound `CC[C@@]1(O)C(=O)OCc2c1cc1n(c2=O)Cc2cc3ccccc3nc2-1`, the TGI came to 0.191 µM in the test on ACHN renal; 0.0322 µM in the test on CAKI-1 renal; 5.18 µM in the test with COLO 205 colon; 0.203 µM in the test on MCF7 breast; 0.0928 µM in the test on NCI-H23 lung; 2.21 µM in the test on OVCAR-4 ovarian. Besides, the TGI with OVCAR-8 ovarian was 0.555 µM; in the test with PC-3 prostate it was over 100 µM; with SK-MEL-28 melanoma, 21.2 µM; with TK-10 renal, 51.2 µM. Also, the GI50 with OVCAR-8 ovarian is 0.0246 µM; in the test with SK-MEL-28 melanoma, 0.18 µM.
As to `Clc1cc(Cl)c2cc3cccc[n+]3cc2c1Cl`, the TGI in the test with ACHN renal stood at 31.7 µM; in the test on CAKI-1 renal it was 21 µM; in the test with COLO 205 colon, 28.1 µM; in the test with MCF7 breast it was 31.9 µM; in the test with NCI-H23 lung it was 30.4 µM; in the test on OVCAR-4 ovarian it was 30.2 µM. In addition, the TGI in the test on OVCAR-8 ovarian amounted to 31 µM; in the test with PC-3 prostate it was 29.2 µM; with SK-MEL-28 melanoma it was 29.9 µM; in the test with TK-10 renal, 40.2 µM.
`CC(C)(C)OC(=O)N1C(OP(=O)(Oc2ccccc2)Oc2ccccc2)=CSc2ccccc21`: the TGI in the test on ACHN renal is over 100 µM; with CAKI-1 renal, 92.3 µM; with COLO 205 colon, 49.6 µM; in the test on MCF7 breast, over 100 µM; with NCI-H23 lung, over 100 µM; with OVCAR-4 ovarian, over 100 µM. In addition, the TGI with OVCAR-8 ovarian, in the test with PC-3 prostate, in the test with SK-MEL-28 melanoma and in the test with TK-10 renal was over 100 µM each time.
